Source: patent US6395749B1, “Carboxamide compounds, methods, and compositions for inhibiting PARP activity” (Guilford Pharmaceuticals Inc., priority 1998, dated 2002)

Test system: C57/BL male mice
Test: Septic shock assay (LPS plus galactosamine challenge)
Format: in vivo, mouse
Details: 60, 20, 6 and 2 mg/kg daily IP for three days, first dose 30 minutes after challenge; dose of the result not stated
Description: Groups of 10 C57/BL male mice weighing 18 to 20 g were administered a test compound, 1-carboxynaphthalene-1-carboxamide at the doses of 60, 20, 6 and 2 mg/kg, daily, by intraperitoneal (IP) injection for three consecutive days. Each animal was first challenged with lipopolysaccharide (LPS, from E. Coli, LD100 of 20 mg/animal IV) plus galactosamine (20 mg/animal IV). The first dose of test compound in a suitable vehicle was given 30 minutes after challenge, and the second and third doses were given 24 hours later on day 2 and day 3 respectively, with only the surviving animals receiving the second or third dose of the test compound. Mortality was recorded every 12 hours after challenge for the three-day testing period. 1-Carboxy-naphthalene-1-carboxamide provided a protection against mortality from septic shock of about 40%.

For NC(=O)c1cccc2cccc(C(=O)O)c12 [1-Carboxy-naphthalene-1-carboxamide, 8-carboxynaphthalene-1-carboxamide], the “protection against mortality from septic shock” value was “about 40%”.
